Common to all, as to type: cell-based
The target in assay [1] is T1, Human LPA1 (Homo sapiens, UniProt Q92633). The assay is described as follows: LPA1 calcium flux assay. Conditions: human LPA1 expressing CHO cells, stimulated with 10 nM LPA; read-out: Ca Flux LPA1 IC50. Set-up: the full-length cDNA for human LPA1 is obtained by PCR of the reverse transcription reaction; expressed in transfected cells. On the procedure:
Establishment of a CHO Cell Line Stably Expressing Human LPA1
A 1.1 kb cDNA encoding the human LPA1 receptor is cloned from human lung. Human lung RNA (Clontech Laboratories, Inc. USA) is reverse transcribed using the RETROscript kit (Ambion, Inc.) and the full-length cDNA for human LPA1 is obtained by PCR of the reverse transcription reaction. The nucleotide sequence of the cloned human LPA1 is determined by sequencing and is confirmed to be identical to the published human LPA1 sequence (An et al. Biochem. Biophys. Res. Commun. 231:619 (1997). The cDNA is cloned into the pCDNA5 pcDNA5/FRT expression plasmid and is transfected in CHO cells using lipofectamine 2000 (Invitrogen Corp., USA). Clones stably expressing human LPA1 are selected using hygromycin and identified as cells that show Ca-influx in response to LPA.
LPA1 and LPA3 Calcium Flux Assays
Human LPA1 or LPA3 expressing CHO cells were seeded at 20,000-45,000 cells per well in a 96-well poly-D-lysine coated plate one or two days before the assay. Prior to the assay, the cells were washed once with PBS and then cultured in serum-free media overnight. On the day of the assay, a calcium indicator dye (Calcium 4, Molecular Devices) in assay buffer (HBSS with Ca^2+ and Mg^2+ and containing 20 mM Hepes and 0.3% fatty-acid free human serum albumin) was added to each well and incubation continued for 1 hour at 37° C. 10 μl of test compounds in 2.5% DMSO were added to the cells and incubation continued at room temperature for 30 minutes. Cells were then stimulated by the addition of 10 nM LPA and intracellular Ca^2+ measured using the Flexstation 3 (Molecular Devices). IC50, were determined using Graphpad prism analysis of drug titration curves.
In general terms: Calcium assays in cells follow changes in intracellular calcium, usually with a dye or a luminescent sensor.

For assay [2], the system named is primary fibroblasts (including lung, dermal), HFL-1, 3T3 and CHO cells expressing LPA1R. The assay is described as follows: LPA1 migration assay (Oris cell migration). The settings on record: inhibition of cell migration in response to chemoattractant (LPA, serum). From the text: Migration of primary fibroblasts (including lung, dermal), HFL-1, 3T3 and CHO cells expressing LPA1R were monitored using the Oris™ assay (Platypus Technologies, Madison, Wis.). These cells were dye (Cell Tracker Green™) loaded and serum starved for 12-24 hrs. In response to chemoattractants such as LPA and serum, the cells migrated inward in to the exclusion (detection) zone. After fixing, fluorescent cells in the detection zone were counted using a high content reader. The ability of LPA1 antagonists to inhibit cell migration is quantified by plotting cell number vs. compound concentration and curve fitting the resulting dose-response curve to a 4 parameter logistic function.

In assay [3] the target is T1, Human LPA1. The assay is described as follows: Beta-Arrestin based assay for human LPA1R antagonists (PathHunter). The settings on record: CHO cells expressing ProLink tagged human LPA1R; antagonist mode, 0.5 micromolar LPA. As for the experimental part: Beta-Arrestin Based Assays for Human LPA1R Antagonists and Agonists
A CHO cell line stably expressing the ProLink™ tagged human LPA1R was obtained from DiscoverX Inc, Fremont, Calif. In this system, β-Arrestin was fused to an N-terminal deletion mutant of β-galactosidase (termed the enzyme acceptor or EA), the human LPA1R was fused to a smaller (42 amino acids) weakly complementing fragment termed ProLink™. […] Cell handling and assays were performed according to protocols specified in the PathHunter® assays kits (DiscoverX, Fremont, Calif.). Assays were performed in quadruplicate in white 384 well plates. End point luminescence data were plotted and fit to a 4 parameter logistic function to obtain IC50 values. For antagonist assays, an […] concentration of agonist (LPA) equal to 0.5 micromolar was used.

T1 sequence (Q92633 whole entry): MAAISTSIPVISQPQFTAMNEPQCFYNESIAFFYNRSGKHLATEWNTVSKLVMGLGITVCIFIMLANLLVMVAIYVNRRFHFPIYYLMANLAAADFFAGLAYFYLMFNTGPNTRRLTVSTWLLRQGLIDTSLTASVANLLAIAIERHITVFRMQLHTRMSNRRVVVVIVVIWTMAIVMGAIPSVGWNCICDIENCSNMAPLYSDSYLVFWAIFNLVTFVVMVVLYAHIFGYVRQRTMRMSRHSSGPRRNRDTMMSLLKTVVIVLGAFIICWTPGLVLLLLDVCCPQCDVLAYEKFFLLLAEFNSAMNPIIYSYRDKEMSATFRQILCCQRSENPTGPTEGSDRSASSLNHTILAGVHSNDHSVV

As for `C[C@@H](OC(=O)Nc1c(C#Cc2cc3sc(C4(C(=O)O)CC4)cc3s2)nnn1C)c1ccccc1` [IT069], the IC50 (as a rule, the point on the concentration scale where inhibition reaches its midpoint) on Human LPA1 [1] was under 50 nM. Also, the EC50 (in general, the concentration needed to bring the measured effect to its halfway point) in assay [2] was 50 to 500 nM; at Human LPA1 [3], under 50 nM.

With `C[C@@H](OC(=O)Nc1c(C#Cc2ccc3cc(C4(C(=O)O)CC4)ccc3c2)cnn1C)c1ccccc1` [IT014], on Human LPA1 [1], the IC50 was under 50 nM. For the same compound, the results for the EC50 (in assay [2]; at Human LPA1 [3]) were 50 to 500 nM and under 50 nM, respectively.

As to `C[C@@H](OC(=O)Nc1c(-c2ccc(-c3ccc(C4(C(=O)O)CC4)cc3)cc2)nn2ncccc12)c1ccccc1` [IT033], the IC50 on Human LPA1 [1] was 50 to 500 nM. For the same compound, the EC50 (in assay [2]; at Human LPA1 [3]) was under 50 nM each time.

Consider `Cc1noc(-c2ccc(-c3ccc4c(C(=O)O)c[nH]c4c3)cc2)c1NC(=O)O[C@H](C)c1ccccc1` [IT009], for which, at Human LPA1 [1], the half-inhibitory concentration (IC50) was over 500 nM. Besides, the EC50 (in assay [2]; at Human LPA1 [3]) was over 500 nM in each case.

`Cc1nsc(-c2ccc(C34CCC(CC(=O)O)(CC3)CC4)cc2)c1NC(=O)O[C@H](C)c1ccccc1` [IT026]: on Human LPA1 [1], the IC50 was over 500 nM. Further, the EC50 (in assay [2]; on Human LPA1 [3]) was over 500 nM each time.

With `CCOC(=O)N1CCn2c(nc(-c3ccc(-c4ccc(C5(C(=O)O)CC5)cc4)cc3)c2NC(=O)O[C@H](C)c2ccccc2)C1` [IT023], the IC50 at Human LPA1 [1] was over 500 nM. Further, the EC50 (in assay [2]; at Human LPA1 [3]) was over 500 nM each time.

As to `C[C@@H](OC(=O)Nc1c(C#Cc2ccc3cc(C4(C(=O)O)CC4)ccc3c2)sc2ncccc12)c1ccccc1` [IT035], the IC50 on Human LPA1 [1] was over 500 nM. Moreover, the EC50 was 50 to 500 nM in assay [2] and under 50 nM on Human LPA1 [3].

As to `CC(=O)N1CCn2c(nc(-c3ccc(-c4ccc(C5(C(=O)O)CC5)cc4)cc3)c2NC(=O)O[C@H](C)c2ccccc2)C1` [IT020], the IC50 on Human LPA1 [1] is over 500 nM. In addition, the EC50 (in assay [2]; at Human LPA1 [3]) was over 500 nM throughout.

With `C[C@@H](OC(=O)Nc1c(-c2ccc(-c3ccc(C4(C(=O)O)CC4)cc3)cc2)sc2ncccc12)c1ccccc1` [IT031], the IC50 on Human LPA1 [1] was 50 to 500 nM. Besides, the EC50 in assay [2] was 50 to 500 nM; on Human LPA1 [3] it was under 50 nM.

Regarding `Cc1noc(-c2cc(F)c(-c3ccc(C4(C(=O)O)CCOCC4)cc3)cc2F)c1NC(=O)O[C@H](C)c1ccccc1` [IT029], the IC50 at Human LPA1 [1] lay within 50 to 500 nM. Further, the EC50 in assay [2] is 50 to 500 nM; on Human LPA1 [3], under 50 nM.

In the case of `CCn1ncc(C#Cc2ccc3cc(C4(C(=O)O)CC4)ccc3c2)c1NC(=O)O[C@H](C)c1ccccc1` [IT016], the IC50 at Human LPA1 [1] was under 50 nM. Further, the values for the EC50 (in assay [2]; at Human LPA1 [3]) were 50 to 500 nM and under 50 nM, respectively.

For the compound `C[C@@H](OC(=O)Nc1c(C#Cc2cc3sc(C4(C(=O)O)CC4)cc3s2)cnn1C)c1ccccc1` [IT017], the IC50 at Human LPA1 [1] is under 50 nM. The EC50 (in assay [2]; at Human LPA1 [3]) was under 50 nM throughout.

`Cc1nnn(-c2cc(F)c(-c3cc4sc(C5(C(=O)O)CC5)cc4s3)cc2F)c1NC(=O)O[C@H](C)c1ccccc1` [IT067]: the IC50 on Human LPA1 [1] was in the range of 50 to 500 nM. Also, the EC50 is over 500 nM in assay [2] and 50 to 500 nM on Human LPA1 [3].

Take `C[C@@H](OC(=O)Nc1c(-c2ccc(-c3ccc(C4(C(=O)O)CCOCC4)cc3)cc2)ncn1C)c1ccccc1` [IT027]: the IC50 at Human LPA1 [1] is 50 to 500 nM. Moreover, the results for the EC50 (in assay [2]; on Human LPA1 [3]) were over 500 nM and 50 to 500 nM, respectively.

As for `C[C@@H](OC(=O)Nc1c(C#Cc2cc3sc(C4(C(=O)O)CC4)cc3s2)nn2ccccc12)c1ccccc1` [IT073], the IC50 at Human LPA1 [1] is under 50 nM. In addition, the EC50 (in assay [2]; on Human LPA1 [3]) was 50 to 500 nM throughout.

`Cc1noc(-c2cc(F)c(-c3ccc(C4(C(=O)O)CCOCC4)cc3)cc2F)c1NC(=O)O[C@H](C)c1ccccc1` [IT030]: the IC50 at Human LPA1 [1] was over 500 nM. Further, the EC50 (in assay [2]; at Human LPA1 [3]) was over 500 nM in each case.

On to `C[C@@H](OC(=O)Nc1c(C2CCC(c3ccc(C4(C(=O)O)CC4)cc3)CC2)cnn1C)c1ccccc1` (stereo partly drawn) [IT066], for which the IC50 on Human LPA1 [1] is 50 to 500 nM. In addition, the EC50 in assay [2] was over 500 nM; on Human LPA1 [3] it was 50 to 500 nM.

As to `Cc1nsc(-c2ccc(-c3cc4sc(C5(C(=O)O)CC5)cc4s3)cc2)c1NC(=O)O[C@H](C)c1ccccc1` [IT046], the IC50 on Human LPA1 [1] is over 500 nM. The EC50 in assay [2] was 50 to 500 nM; at Human LPA1 [3], under 50 nM.

In the case of `Cc1noc(C#Cc2cc3sc(C4(C(=O)O)CC4)cc3s2)c1NC(=O)OCc1ccccc1` [IT048], the IC50 on Human LPA1 [1] was under 50 nM. Moreover, the EC50 in assay [2] was 50 to 500 nM; on Human LPA1 [3] it was under 50 nM.

Turning to `C[C@@H](OC(=O)Nc1c(CCc2cc3sc(C4(C(=O)O)CC4)cc3s2)cnn1C)c1ccccc1` [IT099], the IC50 on Human LPA1 [1] was over 500 nM. Moreover, the results for the EC50 (in assay [2]; at Human LPA1 [3]) were over 500 nM and 50 to 500 nM, respectively.

`Cc1noc(C#Cc2cc3sc(C4(C(=O)O)CC4)cc3s2)c1NC(=O)O[C@H](C)c1ccccc1Cl` [IT047]: the IC50 on Human LPA1 [1] was in the range of 50 to 500 nM. The EC50 (in assay [2]; at Human LPA1 [3]) was under 50 nM in each case.

These data come from patent publication US20140200215A1, “LYSOPHOSPHATIDIC ACID RECEPTOR ANTAGONISTS” (INTERMUNE, INC., priority 2013, published 2014).
